Several values for one entry are separate records, joined by “and”; a condition that tells them apart may be missing. Identical values can stand only once. Like-named read-outs stand apart in the source and are kept apart here. Values belong to the molecule of their own block, whether it stands above or below them.
Legend:
RfLacA = RfLacA (Reticulitermes flavipes, UniProt D0E8H0); assay: RfLacA substrate specificity and kinetic parameters
[1] = biological target: T1, recombinant RfBGluc-1 β-glucosidase (Reticulitermes flavipes, UniProt D9ILU1); assay: Activity of recombinant RfBGluc-1 towards natural substrates, endpoint glucose detection assay; type: biochemical
T1 sequence (D9ILU1 18-495): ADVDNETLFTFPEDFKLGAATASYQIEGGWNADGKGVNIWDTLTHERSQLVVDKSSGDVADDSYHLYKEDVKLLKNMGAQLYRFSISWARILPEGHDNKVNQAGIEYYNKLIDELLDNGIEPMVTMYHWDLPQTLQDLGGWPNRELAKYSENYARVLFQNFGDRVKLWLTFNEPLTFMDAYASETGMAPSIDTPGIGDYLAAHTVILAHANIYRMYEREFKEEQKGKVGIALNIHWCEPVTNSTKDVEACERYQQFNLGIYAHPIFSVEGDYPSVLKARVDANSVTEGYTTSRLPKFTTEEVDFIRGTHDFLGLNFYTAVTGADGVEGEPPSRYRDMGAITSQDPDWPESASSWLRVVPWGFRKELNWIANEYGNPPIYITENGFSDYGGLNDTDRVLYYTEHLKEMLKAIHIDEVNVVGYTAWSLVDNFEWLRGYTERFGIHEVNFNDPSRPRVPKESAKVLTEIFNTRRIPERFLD
Experimental: Natural carbohydrate substrates (Table 2) were tested in endpoint assays in which color development was enabled using 439-90901 glucose-mutarose detection reagent (Wako Chemical; Richmond, Va.). Assays were conducted in 125 μL for 5 min at room temperature as described above and stopped with the addition of 125 μL glucose detection reagent. After 1 min, the absorbance was read at 505 nm.

Cell-1 = conditions: for effect on Cell-1 temperature stability: pre-incubation at 60° C. and 70° C., 0-60 min
Experimental: Thermal stability tests were conducted using 1.5% CMC in 100 mM sodium phosphate at the optimal pH of 7. Temperature-cofactor studies were performed using 1.5% CMC dissolved in 100 mM sodium phosphate (pH 7) alone, plus 4 mM EDTA (final concentration), or plus 10 mM calcium chloride (final concentration). Pre-incubations took place for 0-5 days at 25° C. or 0-60 min at 60° C. or 70° C.; reactions were terminated by the combination of adding stop solution and boiling for 10 min, and then assays were read at 25° C.
Calcium as a cofactor in β-1,4-endoglucanase Cell-1 hydrolytic activity and temperature stability: The effects of calcium on recombinant Cell-1 activity were investigated using calcium chloride as a calcium source and EDTA as a potential calcium chelator.

[2] = biological target: T1, recombinant RfBGluc-1 β-glucosidase; assay: Activity of recombinant RfBGluc-1 towards synthetic nitrophenol substrates, kinetic microplate assay; type: biochemical; conditions: percent activity rankings based on Vmax; pNP-βD-Glucopyranoside = 100
Experimental: All initial characterization assays took place in 0.1 M sodium acetate buffer (pH 6) using 2 μL of recombinant enzyme preparation (=1.58 μg protein per assay) in a total reaction volume of 250 μL. Synthetic p-nitrophenol substrates (Table 1) were tested in direct kinetic assays using a microplate reader. Reactions were initiated by adding 248 μL assay buffer to 2 μL protein. Assays were read at 420 nm every 20 sec for 5 min to yield mean velocity data in mOD/min. Specific activity was determined with the p-nitrophenol extinction coefficient of 0.6605 mM^−1 cm^−1. All results were averaged from three independent replicates, each conducted in triplicate.

[3] = Characterisation of recombinant RfLacA and RfLacB isoforms; type: biochemical
[4] = Recombinant Cell-3 exoglucanase activity in unpurified form; type: biochemical; conditions: for activity toward pNPC relative to uninfected control larvae: homogenates of infected larvae
Text: Recombinant Cell-3 characterization: The recombinant Cell-3 protein (nucleotide sequence SEQ ID NO.: 3; amino acid sequence SEQ ID NO.: 4) was investigated in unpurified form. […] Other experiments investigating activity in crude homogenates over time and after repeated freeze-thaw cycles further verified reduced Cell-3 stability.

[5] = RfLacA, 1 mM substrate, hydroquinone = 100

Chain of RfLacA (D0E8H0 entry or part of it): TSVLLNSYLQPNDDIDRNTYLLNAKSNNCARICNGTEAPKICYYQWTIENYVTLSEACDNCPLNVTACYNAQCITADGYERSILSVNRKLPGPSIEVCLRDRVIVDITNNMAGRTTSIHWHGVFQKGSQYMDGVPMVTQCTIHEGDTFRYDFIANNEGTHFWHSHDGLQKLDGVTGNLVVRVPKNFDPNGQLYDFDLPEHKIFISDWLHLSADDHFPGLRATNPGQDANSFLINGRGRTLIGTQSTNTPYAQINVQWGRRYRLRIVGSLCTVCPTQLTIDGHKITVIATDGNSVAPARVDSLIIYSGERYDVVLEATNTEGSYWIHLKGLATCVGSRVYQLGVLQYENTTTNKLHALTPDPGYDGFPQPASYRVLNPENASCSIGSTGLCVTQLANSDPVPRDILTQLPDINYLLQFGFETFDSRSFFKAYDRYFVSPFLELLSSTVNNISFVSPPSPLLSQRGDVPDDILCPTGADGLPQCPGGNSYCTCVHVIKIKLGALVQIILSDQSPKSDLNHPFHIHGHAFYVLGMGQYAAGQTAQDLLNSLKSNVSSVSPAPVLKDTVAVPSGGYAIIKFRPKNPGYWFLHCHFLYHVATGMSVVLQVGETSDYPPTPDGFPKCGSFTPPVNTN

Optimal pH (RfLacA; RfLacA, per substrate): 7.5
Specific Activity at 1 mM [S] (RfLacA; RfLacA, 1 mM substrate): 2.146 nmol·min/mg
Relative Activity (%) (RfLacA; [5]): 25.63%
Molecule: COc1cccc(OC)c1O [2,6-DMP, 2,6-dimethoxyphenol]

Molecule: Oc1ccc(O)cc1 [Hydroquinone]
Optimal pH (RfLacA): 7
Relative Activity (%) (RfLacA): 100.00%
Specific Activity at 1 mM [S] (RfLacA): 8.373 nmol·min/mg
Apparent Vmax (RfLacA; RfLacA, footnote: maximal specific activities in nmol/min/mg): 0.824 μm min^−1

Optimal pH (RfLacA; RfLacA, per substrate): 6.0 and 7.5
Specific Activity at 1 mM [S] (RfLacA; RfLacA, 1 mM substrate): 0.676 nmol·min/mg
Relative Activity (%) (RfLacA; [5]): 8.07%
Molecule: N[C@@H](Cc1ccc(O)c(O)c1)C(=O)O [L-DOPA]

Molecule: OC[C@H]1O[C@@H](O[C@H]2[C@H](O)[C@@H](CO)OC(O)[C@@H]2O)[C@H](O)[C@@H](O)[C@@H]1O (stereo partly shown) [Laminaribose]
Activity (%) [1]: 34%

Molecule: CC(=O)NCCc1ccc(O)c(O)c1 [NADA]
Relative Activity (%) (RfLacA): 9.08%
Specific Activity at 1 mM [S] (RfLacA; RfLacA, 1 mM substrate): 0.760 nmol·min/mg

Specific Activity at 1 mM [S] (RfLacA; RfLacA, 1 mM substrate): 0.190 nmol·min/mg
Relative Activity (%) (RfLacA; [5]): 2.27%
Molecule: NCCC(=O)NCCc1ccc(O)c(O)c1 [NBAD]

Molecule: Oc1ccccc1O [Pyrocatechol]
Relative Activity (%) (RfLacA): 27.65%
Optimal pH (RfLacA; RfLacA, per substrate): 7.5
Specific Activity at 1 mM [S] (RfLacA; RfLacA, 1 mM substrate): 2.315 nmol·min/mg

Optimal pH (RfLacA; RfLacA, per substrate): 7
Specific Activity at 1 mM [S] (RfLacA; RfLacA, 1 mM substrate): 1.482 nmol·min/mg
Relative Activity (%) (RfLacA; [5]): 17.70%
Molecule: Oc1cccc(O)c1O [Pyrogallol]

Molecule: OCc1ccccc1O[C@@H]1O[C@H](CO)[C@@H](O)[C@H](O)[C@H]1O [Salicin]
Activity (%) [1]: 44%

Molecule: COc1cc(/C=C/C(=O)O)cc(OC)c1O [Sinapinic Acid]
Relative Activity (%) (RfLacA): 40.40%
Optimal pH (RfLacA; RfLacA, per substrate): 7.5
Specific Activity at 1 mM [S] (RfLacA; RfLacA, 1 mM substrate): 3.383 nmol·min/mg

Molecule: OC[C@H]1O[C@@](CO)(O[C@H]2O[C@H](CO)[C@@H](O)[C@H](O)[C@H]2O)[C@@H](O)[C@@H]1O [Sucrose]
Activity (%) [1]: 0%

Molecule: [Ca+2].[Cl-].[Cl-] [calcium chloride]
effect on Cell-1 CMC endoglucanase activity (Cell-1; incubations over a 5-day period at about 25° C.): slightly enhanced
effect on Cell-1 temperature stability (Cell-1): stabilized/extended CMC hydrolysis activity over time
effect on Cell-1 temperature stability (Cell-1; listed as calcium): improves Cell-1 temperature stability

Molecule: O=[N+]([O-])c1cccc(O[C@H]2O[C@H](CO)[C@H](O)[C@H](O)[C@H]2O)c1 [mNP-αD-Galactopyranoside]
Activity (%) [2]: 0%

Molecule: O=[N+]([O-])c1ccccc1O[C@@H]1O[C@H](CO)[C@@H](O)[C@H](O)[C@H]1O [oNP-βD-Glucopyranoside]
Activity (%) [2]: 18%

Molecule: O=[N+]([O-])c1ccccc1O[C@@H]1O[C@H](CO)[C@@H](O)[C@H](O)[C@@H]1O [oNP-βD-Mannopyranoside]
Activity (%) [2]: 0%

Molecule: O=[N+]([O-])c1ccccc1O[C@@H]1OC[C@@H](O)[C@H](O)[C@H]1O [oNP-βD-Xylopyranoside]
Activity (%) [2]: 38%

Molecule: O=[N+]([O-])c1ccc(O[C@H]2O[C@H](CO)[C@H](O)[C@H](O)[C@H]2O)cc1 [pNP-αD-Galactopyranoside]
Activity (%) [2]: 0%

Molecule: O=[N+]([O-])c1ccc(O[C@@H]2O[C@H](CO)[C@@H](O[C@@H]3O[C@H](CO)[C@@H](O)[C@H](O)[C@H]3O)[C@H](O)[C@H]2O)cc1 [pNP-βD-Cellobioside, p-nitrophenyl-beta-D-cellobioside]
Activity (%) [2]: 60%

Molecule: O=[N+]([O-])c1ccc(O[C@@H]2O[C@H](CO)[C@@H](O[C@@H]3O[C@H](CO)[C@@H](O[C@@H]4O[C@H](CO)[C@@H](O[C@@H]5O[C@H](CO)[C@@H](O)[C@H](O)[C@H]5O)[C@H](O)[C@H]4O)[C@H](O)[C@H]3O)[C@H](O)[C@H]2O)cc1 [pNP-βD-Cellotetraoside, p-nitrophenyl-beta-D-cellotetraoside]
Activity (%) [2]: 73%

Molecule: O=[N+]([O-])c1ccc(O[C@@H]2O[C@H](CO)[C@@H](O[C@@H]3O[C@H](CO)[C@@H](O[C@@H]4O[C@H](CO)[C@@H](O)[C@H](O)[C@H]4O)[C@H](O)[C@H]3O)[C@H](O)[C@H]2O)cc1 [pNP-βD-Cellotrioside, p-nitrophenyl-beta-D-cellotrioside]
Activity (%) [2]: 98%

Molecule: C[C@H]1O[C@@H](Oc2ccc([N+](=O)[O-])cc2)[C@H](O)[C@@H](O)[C@H]1O [pNP-βD-Fucopyranoside]
Activity (%) [2]: 55%

Molecule: O=[N+]([O-])c1ccc(O[C@@H]2O[C@H](CO)[C@H](O)[C@H](O)[C@H]2O)cc1 [pNP-βD-Galactopyranoside]
Activity (%) [2]: 0%

Molecule: O=[N+]([O-])c1ccc(O[C@@H]2O[C@H](CO)[C@@H](O)[C@H](O)[C@H]2O)cc1 [pNP-βD-Glucopyranoside, p-nitrophenyl-beta-D-glucopyranoside]
Activity (%) [2]: 100%

Molecule: O=C(O)[C@H]1O[C@@H](Oc2ccc([N+](=O)[O-])cc2)[C@H](O)[C@@H](O)[C@@H]1O [pNP-βD-Glucuronide]
Activity (%) [2]: 0%

Molecule: O=[N+]([O-])c1ccc(O[C@@H]2OC[C@@H](O)[C@H](O)[C@H]2O)cc1 [pNP-βD-Xylopyranoside]
Activity (%) [2]: 0%

Molecule: O=[N+]([O-])c1ccc(O[C@H]2OC[C@H](O)[C@H](O)[C@H]2O)cc1 [pNP-βL-Arabinopyranoside]
Activity (%) [2]: 0%

Activity (%) ([1]; percent activity rankings based on Vmax, cellobiose = 100): 100%
Molecule: Cellobiose

B1: RfLacB: recombinant R. flavipes gut laccase isoform 2, clone Lac12, SEQ ID NO.: 12 (protein)
chain: VYRSDAYIMLPCVLLACAIGVASATSVLLNSYLQPNDDIDRNTYLLNAKSNNCARICNGTEAPKICYYQWTIENYVTLSEACDNCPLNVTACYNAQCITADGYERSILSVNRKLPGPSIEVCLRDRVIVDITNNMAGRTTSIHWHGVFQKGSQYMDGVPMVTQCTIHEGDTLRYDFIANNEGTHFWHSHDGLQKLDGVTGNLVVRVPKNFDPNGQLYDFDLPEHKIFISDWLHLSADDHFPGLRATNPGQDANSFLINGRGRTLIGTQSTNTPYAQINVQWGRRYRLRIVGSLCTVCPTQLTIDGHKITVIATDGNSVAPARVDSLIIYSGERYDVVLEATNTEGSYWIHLKGLVTCVGSRVYQLGVLQYENTTTNKLHALTPDPGYDGFPQPASYRVLNPENASCSIGSTGLCVTQLANSDPVPRDILTQLPDINYLLQFGFKIFDSRSFFKAYDRYFVSPFLDLVSSTVNNISSVSPPSPLLSQRGDVPDDVLCPTGADGLPQCPGGNSYCTCVHVIKIKLGALVQIILSDQTPKSGLNHPFHLHGHAFYVLGMGQYAAGQTAQDLLNSLKSNVSSVSPAPVLKDTIAVPSGGYAIIKFRPKNPGYWFLHCHFLYHVATGMSVVLQVGETSDYPPTPDGFPKCGSFTPPVNTN
modifications: Reticulitermes flavipes; amino acid sequence Laccase Lacc-12
Results of RfLacB isoform compared with RfLacA against all substrates [3]: statistically indistinguishable results to RfLacA
oxidation of ABTS and syringaldazine [3]: unable to oxidize

B2: Cell-3: recombinant exoglucanase, amino acid sequence SEQ ID NO.: 4, investigated in unpurified form (protein)
chain: MVLCILLQWMQIGGKQKYPAFKPGAKYGRGYCDGQCPHDMKVSSGRANVDGWKPQDNDENSGNGKLGTCCWEMDIWEGNLVSQAYTVHAGSKSGQYECTGTQCGDTDSGERFKGTCDKDGCDFASYRWGATDYYGPGKTVDTKQPMTVVTQFIGDPLTEIKRVYVQGGKVINNSKTSNLGSVYDSLTEAFCDDTKQVTGDTNDFKAKGGMSGFSKNLDTPQVLVMSLWDDHTANMLWLDSTYPTDSTKPGAARGTCAVTSGDPKDVESKQANSQVVYSDIKFGPINSTYKAN
modifications: Reticulitermes flavipes; amino acid sequence exoglucanase (Cell-3)
activity toward pNPC relative to uninfected control larvae [4]: significantly higher activity
activity toward pNPC relative to uninfected control larvae ([4]; listed as recombinant Cell-3): higher exoglucanase (cellulase) activity than do uninfected homogenates
stability of recombinant protein ([4]; pNPC activity in filtrates, over time and after freeze-thaw cycles): reduced stability

Reference: US8445240B2, “Termite enzymes and uses thereof for in vitro conversion of lignin-containing materials to fermentable products” (University of Florida Research Foundation, Inc., priority 2009, dated 2013)
